One data set deals with Caco-2. Briefly: compound was evaluated for their ability to cross a Caco-2-monolayer. Type of data set: functional, cell-based. Particulars: Homo sapiens.
Data set [1] is described as follows: pKa value of the compound. Type of data set: physicochemical.
Another data set has as its target Prothrombin (Homo sapiens, UniProt P00734). Description: Inhibitory activity against thrombin was measured by its ability to cleave the synthetic substrate S-2238(D-Phe-Pip-Arg-pNA). Particulars: read-out: I50.

Some results are limits rather than exact numbers.

One may read the pKa as the pH at which an ionisable group is half protonated. A high value points to a weaker acid or stronger base. In the case of `CC1CCN(C(=O)[C@H](CCCNc2ncccn2)NS(=O)(=O)c2ccc3ccccc3c2)CC1`, the Permeability coefficient with Caco-2 was 13.8 ×10⁻⁶ cm/s. The pKa in data set [1] came to 3.5. For the same compound, the IC50 at Prothrombin was greater than 115 µM.

Take `CC1CCN(C(=O)[C@H](CCCN=C(N)N)NS(=O)(=O)c2ccc3ccccc3c2)CC1`: in the data set with Caco-2, the Permeability coefficient came to 0.4 ×10⁻⁶ cm/s. Besides, the pKa in data set [1] was 14. In addition, the IC50 at Prothrombin amounted to 2.5 µM.

`CC1CCN(C(=O)[C@H](CCCNc2ccccn2)NS(=O)(=O)c2ccc3ccccc3c2)CC1` gave a pKa in data set [1] of 6.9. The IC50 at Prothrombin came to 5.5 µM.

The compound `COc1ccc2ccc(S(=O)(=O)N[C@@H](CCCNc3cccnn3)C(=O)N3CCC(C)CC3)cc2c1` showed a Permeability coefficient in the data set on Caco-2 of 12.1 ×10⁻⁶ cm/s. In data set [1], this compound came in with a pKa of 5.2. At Prothrombin, the IC50 stood at 2.3 µM.

On to `COc1ccc2ccc(S(=O)(=O)N[C@@H](CCCNc3ccccn3)C(=O)N3CCC(C)CC3)cc2c1`, for which the Permeability coefficient in the data set on Caco-2 was determined as 3 ×10⁻⁶ cm/s. In addition, the pKa in data set [1] is 6.9. Also, the IC50 at Prothrombin was found to be 0.47 µM.

`CC1CNc2c(cccc2S(=O)(=O)NC(CCCNC(=N)N)C(=O)N2CC[C@@H](C)C[C@@H]2C(=O)O)C1` (single isomer, unassigned) [ARGATROBAN] showed a Permeability coefficient in the data set with Caco-2 of 0.3 ×10⁻⁶ cm/s. For the same compound, the pKa in data set [1] turned out to be 14.

The compound `CC1CCN(C(=O)[C@H](CCCNc2cccnn2)NS(=O)(=O)c2ccc3ccccc3c2)CC1` yielded a Permeability coefficient in the data set with Caco-2 of 12.3 ×10⁻⁶ cm/s. In data set [1], this compound yielded a pKa of 5.2. Moreover, on Prothrombin, the IC50 is 24 µM.

For the compound `CC1CCN(C(=O)[C@H](CCCNc2cnccn2)NS(=O)(=O)c2ccc3ccccc3c2)CC1`, in the data set on Caco-2, the Permeability coefficient was found to be 14.2 ×10⁻⁶ cm/s. In data set [1], the pKa is 3.1. In addition, the IC50 on Prothrombin is greater than 40 µM.
